32 molecules from ChEMBL document CHEMBL4145659, “Discovery of a Series of Indole-2 Carboxamides as Selective Secreted Phospholipase A2 Type X (sPLA2-X) Inhibitors” (ACS Med Chem Lett, 2018) can be followed below.

Active and inactive are the calls of the source. No cut-off for these calls is given here. Some results are limits rather than exact numbers.

The target of data set [1] is T1, Group 10 secretory phospholipase A2 (Homo sapiens, UniProt O15496).
T1 sequence (O15496 whole entry): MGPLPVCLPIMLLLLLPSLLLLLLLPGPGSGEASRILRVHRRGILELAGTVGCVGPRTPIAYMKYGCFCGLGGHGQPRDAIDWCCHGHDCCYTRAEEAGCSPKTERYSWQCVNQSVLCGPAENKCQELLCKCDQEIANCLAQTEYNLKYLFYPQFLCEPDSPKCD
Description: (§1) Inhibition of recombinant human sPLA2-10 expressed in Escherichia coli BL21(DE3) using 1-palmitoyl-2-oleoyl-sn-glycero-3-phosphocholine as substrate pretreated for 20 mins followed by substrate addition and measured after 60 mins.

Data set [2] addresses T2, Phospholipase A2 group V (Homo sapiens) (UniProt P39877).
T2 sequence (whole entry): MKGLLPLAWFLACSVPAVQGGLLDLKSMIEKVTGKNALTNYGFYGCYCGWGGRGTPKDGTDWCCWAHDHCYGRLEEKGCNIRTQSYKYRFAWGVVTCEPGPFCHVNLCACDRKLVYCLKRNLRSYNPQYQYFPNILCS
Description: Inhibition of recombinant human sPLA2-5 expressed in Escherichia coli BL21(DE3) at 30 uM using 1-palmitoyl-2-oleoyl-sn-glycero-3-phosphocholine as substrate pretreated for 20 mins followed by substrate addition and measured after 60 mins.

Data set [3] deals with T3, Phospholipase A2, membrane associated (Homo sapiens, UniProt P14555).
T3 sequence (P14555 whole entry): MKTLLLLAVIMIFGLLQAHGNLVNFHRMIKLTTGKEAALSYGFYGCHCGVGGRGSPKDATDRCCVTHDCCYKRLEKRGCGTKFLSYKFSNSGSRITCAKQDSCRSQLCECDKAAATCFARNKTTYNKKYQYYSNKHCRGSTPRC
Nature of the data set: Inhibition of recombinant human sPLA2-2A expressed in Escherichia coli BL21(DE3) using 1-palmitoyl-2-oleoyl-sn-glycero-3-phosphocholine as substrate pretreated for 20 mins followed by substrate addition and measured after 60 mins.

In data set [4] the target is T1, Group 10 secretory phospholipase A2. Description: Inhibition of recombinant human sPLA2-10 expressed in Escherichia coli BL21(DE3) using HDL as substrate pretreated for 20 mins followed by substrate addition and measured after 60 mins.
In a further data set the target is T4, Phospholipase A2 group V (Homo sapiens, UniProt P39877).
T4 sequence (P39877 whole entry): T2 sequence (whole entry)
Nature of the data set: Inhibition of recombinant human sPLA2-5 expressed in Escherichia coli BL21(DE3) using 1-palmitoyl-2-oleoyl-sn-glycero-3-phosphocholine as substrate pretreated for 20 mins followed by substrate addition and measured after 60 mins.

Data set [5] has as its target T5, Group 10 secretory phospholipase A2 (Homo sapiens) (UniProt O15496).
T5 sequence (whole entry): T1 sequence (O15496 whole entry)
The data set is described as §1.

Data set [6] deals with T6, Phospholipase A2, membrane associated (Homo sapiens) (UniProt P14555).
T6 sequence (whole entry): T3 sequence (P14555 whole entry)
Description: Inhibition of recombinant human sPLA2-2A expressed in Escherichia coli BL21(DE3) at 30 uM using 1-palmitoyl-2-oleoyl-sn-glycero-3-phosphocholine as substrate pretreated for 20 mins followed by substrate addition and measured after 60 mins.

The nature of data set [7]: Volume of distribution at steady state in Beagle dog at 1 µmol/kg, iv by LC/MS analysis. Conditions: in vivo, read-out: Vdss.
Data set [8] concerns the target T7, Group 10 secretory phospholipase A2 (Mus musculus, UniProt Q9QXX3).
T7 sequence (Q9QXX3 whole entry): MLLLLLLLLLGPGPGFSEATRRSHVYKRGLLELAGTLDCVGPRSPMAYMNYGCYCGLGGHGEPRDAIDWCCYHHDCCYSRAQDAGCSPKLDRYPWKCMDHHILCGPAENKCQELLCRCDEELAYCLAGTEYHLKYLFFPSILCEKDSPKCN
Nature of the data set: Inhibition of mouse sPLA2-10 using 1-palmitoyl-2-oleoyl-sn-glycero-3-phosphocholine as substrate pretreated for 20 mins followed by substrate addition and measured after 60 mins.

Data set [9] is described as follows: AUC in Sprague-Dawley rat at 4 µmol/kg, po administered via gavage by LC/MS analysis. Conditions: in vivo.
Data set [10] can be described thus: AUC in Beagle dog at 1 µmol/kg, iv by LC/MS analysis. Conditions: in vivo.
The nature of data set [11]: Volume of distribution at steady state in Sprague-Dawley rat at 1 µmol/kg, iv by LC/MS analysis. Conditions: in vivo, read-out: Vdss.
Data set [12] is described as follows: AUC in Sprague-Dawley rat at 1 µmol/kg, iv by LC/MS analysis. Conditions: in vivo.
The nature of data set [13]: Clearance in Sprague-Dawley rat at 1 µmol/kg, iv by LC/MS analysis. As to conditions: in vivo.
Data set [14] in a line: Oral bioavailability in Sprague-Dawley rat at 4 µmol/kg administered via gavage by LC/MS analysis. Conditions: in vivo.
Data set [15] is described as follows: Clearance in Beagle dog at 1 µmol/kg, iv by LC/MS analysis. As to conditions: in vivo.
Data set [16] is described as follows: Intrinsic clearance in human hepatocytes assessed per million cells at 1 uM measured after 2 to 60 mins. Format: ADME, cell-based, Hepatocyte. As to conditions: read-out: CLH.

The IC50 is the point on the concentration scale where inhibition reaches its midpoint. For orientation: AUC means concentration integrated over time. The low end stands for low exposure, the high end for high exposure. By clearance is commonly meant a measure of how efficiently the substance is removed, as volume per time. The term bioavailability denotes dose-corrected exposure relative to a reference, in per cent. Low readings indicate little systemic uptake, high ones much systemic uptake.

Turning to `CS(=O)(=O)NC(=O)CCc1cccc(-n2c(C(N)=O)cc3ccccc32)c1`, in data set [1], the half-maximal inhibitory concentration (IC50) turned out to be 4800 nM.
Take `NC(=O)c1cc2ccc(Cl)cc2n1-c1cccc(CCC(=O)O)c1`: the inhibition result in [2] was “inactive”. The figures for the IC50 in [3], in [4] and in data set [1] were 5700 nM, 1100 nM and 90 nM, respectively.
With `NC(=O)c1cc2ccccc2n1-c1cccc(C(F)(F)F)c1`, the IC50 in data set [1] turned out to be 6900 nM.
For `NC(=O)c1cc2ccc(C(F)(F)F)cc2n1-c1cccc(CCC(=O)O)c1`, the IC50 in [3] came out at 890 nM; in [4], 480 nM; on Phospholipase A2 group V it was 3700 nM; in [1], 43 nM.
With `NC(=O)c1cc2sccc2n1-c1cccc(CCC(=O)O)c1`, the inhibition result in [5] was “inactive”.
Turning to `NC(=O)c1cc2ccccc2n1-c1cccc(OCC(=O)O)c1`, the 50% inhibitory concentration (IC50) in data set [1] stood at 26900 nM.
Take `Cc1ccc2c(c1)cc(C(N)=O)n2-c1cccc(CCC(=O)O)c1`: in [1], the concentration for half-maximal inhibition (IC50) is 2700 nM.
With `NC(=O)CCc1cccc(-n2c(C(N)=O)cc3ccccc32)c1`, the half-inhibitory concentration (IC50) in data set [1] is more than 30000 nM.
Consider `CCc1ccc2cc(C(N)=O)n(-c3cccc(CCC(=O)O)c3)c2c1`, for which the inhibition result in data set [2] is “inactive”. The results for the IC50 in data set [3] and in data set [1] were 4400 nM and 170 nM, respectively.
Consider `NC(=O)c1cccn1-c1cccc(CCC(=O)O)c1`, for which the inhibition result in data set [5] was “inactive”.
Consider `NC(=O)c1cc2ccccc2n1-c1ccccc1`, for which the IC50 in data set [1] is more than 30000 nM.
On the same count and under the same terms, with `NC(=O)c1cc2ccccc2n1-c1cccc(CC(=O)O)c1` the figure was 10300 nM; with `NC(=O)c1cc2ccccc2n1Cc1cccc(C(=O)O)c1`, 20700 nM.
As to `NC(=O)c1cc2ccc(CO)cc2n1-c1cccc(CCC(=O)O)c1`, the inhibition result in [2] and in data set [6] was “inactive” in each case. Further, the IC50 in data set [1] is 2800 nM.
In the case of `NC(=O)c1cc2ccccc2n1-c1cccc(CCC(=O)O)c1`, the inhibition result in data set [2] and in [6] was “inactive” each time. Also, the IC50 in [1] was determined as 990 nM.
For the molecule `NC(=O)c1cc2ccsc2n1-c1cccc(CCC(=O)O)c1`, in data set [5], the inhibition entry is “inactive”.
Take `NC(=O)c1cc2ccc(OCC(F)(F)F)cc2n1-c1cccc(CCC(=O)O)c1`: the inhibition entry in [2] is “inactive”. Besides, the results for the IC50 in data set [3], in data set [4] and in [1] were more than 10000 nM, 740 nM and 93 nM, respectively.
For `COc1ccc2cc(C(N)=O)n(-c3cccc(CCC(=O)O)c3)c2c1`, the inhibition entry in data set [2] and in data set [6] was “inactive” throughout. The 50% inhibitory concentration (IC50) in data set [1] worked out at 620 nM.
`N#Cc1ccc2cc(C(N)=O)n(-c3cccc(CCC(=O)O)c3)c2c1`: in [2], the inhibition entry is “inactive”. Moreover, the IC50 in data set [3] was 3900 nM; in data set [4], 990 nM; in [1] it was 110 nM.
With `Cc1cccc2cc(C(N)=O)n(-c3cccc(CCC(=O)O)c3)c12`, the inhibition entry in [2] and in [6] was “inactive” each time. Besides, in data set [1], the concentration for half-maximal inhibition (IC50) came to 1900 nM.
As to `NC(=O)c1nc2ccccn2c1-c1cccc(CCC(=O)O)c1`, the inhibition result in [5] was “inactive”.
`NC(=O)c1cc2ccc(C3CC3)cc2n1-c1cccc(CCC(=O)O)c1`: the concentration for half-maximal inhibition (IC50) in [3] was 2300 nM; in [4], 1900 nM; on Phospholipase A2 group V, more than 10000 nM; in [1], 160 nM.
As to `NC(=O)c1cc2ccccc2n1-c1cccc(/C=C/C(=O)O)c1`, the IC50 in data set [1] is 23600 nM.
As for `Cc1cccc2c1cc(C(N)=O)n2-c1cccc(CCC(=O)O)c1`, the 50% inhibitory concentration (IC50) in data set [1] was found to be 830 nM.
Take `NC(=O)c1cc2ccc(F)cc2n1-c1cccc(CCC(=O)O)c1`: the inhibition result in data set [2] and in data set [6] was “inactive” each time. Further, the half-inhibitory concentration (IC50) in data set [1] worked out at 260 nM.
Regarding `NC(=O)c1cc2ccccc2n1-c1cccc(C(=O)O)c1`, in [1], the IC50 was 29100 nM.
The same measure, in the same setting: next, `NC(=O)c1cc2ccccc2n1-c1cccc(C(=O)NCC(=O)O)c1`: 7200 nM.
With `Cc1ccc2cc(C(N)=O)n(-c3cccc(CCC(=O)O)c3)c2c1`, the inhibition entry in [2] and in data set [6] was “inactive” each time. The half-maximal inhibitory concentration (IC50) in data set [1] came out at 230 nM.
For the molecule `NC(=O)c1cc2ccc(OC(F)F)cc2n1-c1cccc(CCC(=O)O)c1`, the inhibition result in data set [2] was “inactive”. Further, the values for the IC50 in data set [3], in data set [4] and in [1] were 3600 nM, 370 nM and 68 nM, respectively.
Consider `NC(=O)c1cc2cccnc2n1-c1cccc(CCC(=O)O)c1`, for which, in [5], the inhibition result was “inactive”.
`CCc1c(C(=O)C(N)=O)c2c(OCC(=O)O)cccc2n1Cc1ccccc1` [VARESPLADIB]: on Phospholipase A2 group V, the IC50 amounted to 124 nM.
`NC(=O)c1cc2ccc(OC(F)(F)F)cc2n1-c1cccc(CCC(=O)O)c1`: the figures for the Vd in data set [7] and in data set [11] were 0.44 L/kg and 2.54 L/kg, respectively. Moreover, the half-maximal inhibitory concentration (IC50) in data set [3] worked out at 310 nM; in [8] it was 96 nM; in data set [4], 270 nM; on Phospholipase A2 group V, 2230 nM; in data set [1], 26 nM. The area under the curve (AUC) in data set [9] is 11 µM·h; in data set [10], 8.78 µM·h; in [12], 1.84 µM·h. Besides, the clearance in data set [13] came out at 9.1 mL/min/kg; in data set [15] it was 0.75 mL/min/kg. In data set [14], this molecule registered a bioavailability of 100%. For the same molecule, the hepatocyte CLint at 1 µM in data set [16] was 1.7 µL/min/1e6 cells.
